“Also recorded” adds a separate entry of the source.
Tests used:
[1] = cited from earlier work
[2] = test system: leukocyte infiltration in lung tissues; assay: Hind-limb ischemia-reperfusion-induced second-organ (lung) injury, lung MPO by ELISA; assay type: in vivo, mice; details: for reduction of lung MPO concentration (FIG. 7D), mean±SEM: 1 μg i.v. 5 min before reperfusion, lungs collected after 2 h reperfusion; for effect on leukocyte (PMN) infiltration / MPO in lung tissue, in words: 1 μg/mouse i.v.
Description: To identify the effects of the resolvins and protectins on inflammation resolution, ischemia-reperfusion induced second-organ injury experiments were designed and are illustrated in FIGS. 7A-D. Mice were anesthetized by intraperitoneal injection of pentobarbital (80 mg kg^−1, Nembutal sodium solution NDC 0074-3778-04). Hind-limb ischemia was initiated using tourniquets consisting of a rubber band placed on each hind limb as in ref.^35. Mice were subjected to hind limb ischemia for 1 h, after which the tourniquets were removed to initiate reflow-reperfusion. Resolvins, related compounds and analogs were each administered at 1 μg/mouse (i.e., DHA, RvD1, RvD1 methyl ester, 17-(R/S)-methyl-RvD1 methyl ester, RvE1, or 19-p-fluorophenoxy-RvE1 methyl ester) in vehicle (5 μl ethanol in 120 μl sterile saline) or vehicle alone. They were administered intravenously to the tail vein ˜5 min before the start of the reperfusion period. At the end of this reperfusion period (2 h), the mice were euthanized with an overdose of anesthetic and the lungs were quickly harvested, frozen in liquid nitrogen, and stored at −80° C. The right lungs were homogenized from individual mice and centrifuged, and the tissue levels of myeloperoxidase (MPO) (a leukocyte marker enzyme) in the resulting supernatants, for each experimental protocol, were determined using a mouse MPO enzyme-linked immunosorbent assay (Hycult biotechnology, Cell Sciences, Uden, The Netherlands).
Briefly, as illustrated in the time-course shown in FIG. 7A, hind-limb ischemia was induced in mice by creating tourniquets using a rubber band on each hind limb. After 1 h, the tourniquets were removed and reperfusion ensued. Test compounds (1 μg of DHA, RvD1, RvE1) in vehicle were administered intravenously 5 min before the start of the reperfusion period. At the end of the reperfusion period (2 h), lungs were collected and MPO concentrations were determined by ELISA. FIGS. 7B and C are representative images from histological analysis. FIG. 9B is a photomicrograph showing a hematoxylin/eosin-stained lung from ischemia/reperfusion second organ injury (control). […] Mean±SEM (n=3-5, control; n=12).
Ischemia/reperfusion is a well-appreciated pathophysiologic mechanism of organ injury and local tissue damage that can be initiated by excessively activated PMN. This system in the mouse, models the second organ injury observed in humans following tourniquet release of vessels in surgery involving, for example, extremities^41, 42. Remote or second organ injury can also occur when blood vessels are occluded, or during certain surgical procedures that create local ischemia and remote organ injury that has many features of rapid, acute inflammation and tissue damage^35. On release of the tourniquet occlusion, reflow is initiated and activated PMN rapidly infiltrate secondary organs, causing damage^35. Here, the inventors evaluated RvD1 in a remote organ injury system, i.e., hind-limb ischemia/reperfusion, to assess whether RvD1's ability to inhibit PMN migration, in vitro, in microchambers (FIGS. 8A-C, 9-11) can be predictive of their effect to reduce PMN mediated tissue and organ damage in vivo. […] The extent of lung tissue injury is associated with PMN activation and organ infiltration^35.

human PMN = assay: Microfluidic chemotaxis device: PMN chemotaxis in IL-8 gradient; assay type: cell-based; details: 10 nM (DHA equimolar), PMN captured on P-selectin from a drop of whole blood, n=12
Text: A new microvolume chemotaxis device was designed using polyethylene glycol (PEG) that allows testing the chemotactic function of neutrophils and their responses to these novel lipid mediators immediately after being separated from whole blood within the device. One exemplary embodiment of the device is illustrated in FIGS. 8A-C. In this embodiment, the microvolume chemotaxis device with microstructured valves was fabricated using “lab-on-chip” microfabrication technologies^36. Briefly, two silicon wafers were coated with a 50-μm-thick layer of SU8 photoresist (MicroChem, Newton, Mass.). After exposure to UV light through a mylar mask in a mask, aligner and development following manufacturer recommendations, 50 μm-tall features were produced on top of the silicon wafers. Subsequently, poly (dimethylsiloxane) (PDMS, Dow Corning, Midland, Mich.) was prepared by mixing two components in 10:1 ratio, as recommended by the manufacturer. […]
After assembly, different sections of the device were chemically modified for specific functionalities. […] The surface of the chemotaxis chamber, where neutrophils were captured and assessed for their chemotactic responses, were modified by physical adsorption of P-selectin (10 ng/mL for 30 minutes, R&D Systems, Minneapolis, Minn.) immediately before use. […]

[3] = human plasma; cited from earlier work
[4] = healthy human subjects; cited from earlier work
[5] = test system: P. gingivalis-induced periodontitis; assay: Rabbit periodontitis induced with Porphyromonas gingivalis, RvE1 topical monotherapy; assay type: in vivo
Text: The inventors established a small animal model for the evaluation of disease progression and regeneration after treatment using the rabbit as a model induced with periodontitis using Porphyromonas gingivalis. Briefly, ligatures were tied around the second mandibular premolar of rabbits for 6wk to create an environment where the periodontopatogen P. gingivalis could be retained. […] The right panel is the same preparation but with the jaws defleshed to show the bone underneath. […] FIG. 13 sows that the bone loss extends from the crest of the bone to the depth of the infrabony pocket.
The figures illustrate the new deposition of the cementum (NC) the new periodontal ligament (PL), connective tissue (CT) and bone (B).

[6] = test system: peripheral blood monocytes; assay: RANKL-induced differentiation of peripheral blood monocytes into osteoclasts; assay type: cell-based; details: RANKL treatment
Text: This effect is even more pronounced than for PRP (platelet rich plasma) a recognized inhibitor of osteoclast differentiation. Preparations of 5, 10, 20% PRP are compared with RvE1 were quantified in experiments in which peripheral blood monocytes were induced to differentiate into osteoclasts with RANKL treatment.
In order to investigate the etiology of resolvins in bone regeneration, the inventors investigated the effect of RvE1 on osteoclast differentiation. In these experiments, peripheral blood monocytes were induced to differentiate into osteoclasts with RANKL treatment.

[7] = Metabolic inactivation of RvE1 by mouse lung tissue; assay type: in vitro ADME

CCC(=O)/C=C/C=C\C[C@@H](O)/C=C/C=C/C=C\[C@@H](O)CCCC(=O)O [18-oxo-RvE1]
activity of the lung metabolite [1]: devoid of activity

CC/C=C\C/C=C\C/C=C\C/C=C\C/C=C\C/C=C\CCC(=O)O [DHA, [4Z,7Z,10Z,13Z,16Z,19Z]-docosa-4,7,10,13,16,19-hexaenoic acid, reference compound]
reduction of lung MPO concentration (FIG. 7D), mean±SEM [2]: 0±7.7 | effect on leukocyte (PMN) infiltration / MPO in lung tissue, in words [2]: neither DHA nor native RvE1 gave significant reduction | effect on PMN migration (chemotaxis) in IL-8 gradient (human PMN): did not stop PMN migration; also recorded: failed to stop neutrophil chemotaxis | half-life [3]: 20 h

CC/C=C\C/C=C\C/C=C\CCCCCCCC(=O)O [α-linolenic acid]
extent of conversion to DHA [4]: 0.05 to 4.0% | proportion converted to EPA [4]: 0.20 to 8.0%

CC[C@@H](O)/C=C/C=C\C[C@@H](O)/C=C/C=C/C=C\[C@@H](O)CCCC(=O)O [RvE1, 5S,12R,18R-trihydroxy-6Z,8E,10E,14Z,16E-eicosapentaenoic acid]
reduction of lung MPO concentration (FIG. 7D), mean±SEM [2]: 0±9.3 | effect on leukocyte (PMN) infiltration / MPO in lung tissue, in words [2]: inactive | bone regeneration compared with healthy controls (FIG. 13) ([5]; animals with induced periodontitis treated with RvE1): approximately 80% | histology of regenerated periodontium (undecalcified sections) ([5]; area of prior periodontal disease): establishment of new cementum, new fiber attachment and new bone and connective tissue | RvE1-induced bone regeneration, in words ([5]; p<0.001): to pre-disease levels | osteoclast differentiation ([6]; PRP 5, 10, 20%, P<0.05): significantly inhibited | resorption area (FIG. 15) ([6]; increasing amounts): significantly decreased

CC/C=C\C/C=C\C/C=C\C/C=C\C/C=C\CCCC(=O)O [EPA, [5Z,8Z,11Z,14Z,17Z-icosa-5,8,11,14,17-pentaenoic acid]
half-life [3]: 67 h

COC(=O)CCC[C@H](O)\C=C/C=C/C=C/[C@H](O)C/C=C\C=C\[C@@H](O)COc1ccc(F)cc1 [19-p-fluorophenoxy-RvE1-Me, 19-p-fluorophenoxy-RvE1 methyl ester]
percent reduction of MPO found in lungs (FIG. 11), mean±SEM ([2]; 1 μg i.v. in vehicle, ischemia-reperfusion): 19.7 ±7.7% | effect on leukocyte (PMN) infiltration / MPO in lung tissue, in words [2]: significantly reduced leukocyte infiltration | metabolic inactivation (conversion to 18-oxo) in mouse lung tissue [7]: prevents this metabolic inactivation
